Results taken from US8686046B2, “Compositions and methods for inhibiting sphingosine kinase” (University of Virginia Patent Foundation, priority 2008, dated 2014).

Legend:
SphK = SphK inhibition
SMCs [1] = test: PDGF-BB-induced SMC proliferation by BrdU incorporation; type: cell-based; conditions: FIG. 21A
Experimental: Cell proliferation was measured by BrdU incorporation.

S1P production = S1P production by smooth muscle cells (LC/MS); type: cell-based, rat
Experimental: (§1) Smooth muscle cells (SMCs) are treated with platelet-derived growth factor BB (PDGF-BB), a potent modulator of SMC.
(§2) FIG. 19 illustrates the PDGF-BB increase Sphk1 mRNA, Spkh1 (not Sphk2) activity and S1P production. […] Cultured rat aortic smooth muscle cells were stimulated with PDGF-BB. 19A.) Real-time PCR analysis of Sphk1 mRNA at various time points compared to vehicle control. 19B.) Analysis of Sphk1 and Sphk2 activity (P^32ATP kinase assay). 19C.) S1P concentration in the media 12 hours after stimulating SMCs with PDGF-BB.

SMCs [2] = test: Cell cytotoxicity by Promega caspase activity assay; type: cell-based; conditions: after 24 hr treatment, FIG. 21B
SMCs [3] = test: Images of SMCs treated with and without compound; type: cell-based; conditions: FIG. 21C
Sphk1 = molecular target: T1, Sphk1 (Rattus norvegicus, UniProt Q91V26); test: Sphk1/Sphk2 activity in PDGF-BB-stimulated smooth muscle cells (P32 ATP kinase assay); type: cell-based; conditions: cultured rat aortic smooth muscle cells stimulated with PDGF-BB; FIG. 19B
T1 construct: endogenous in cells; host or cells: cultured rat aortic smooth muscle cells
T1 sequence (Q91V26 whole entry): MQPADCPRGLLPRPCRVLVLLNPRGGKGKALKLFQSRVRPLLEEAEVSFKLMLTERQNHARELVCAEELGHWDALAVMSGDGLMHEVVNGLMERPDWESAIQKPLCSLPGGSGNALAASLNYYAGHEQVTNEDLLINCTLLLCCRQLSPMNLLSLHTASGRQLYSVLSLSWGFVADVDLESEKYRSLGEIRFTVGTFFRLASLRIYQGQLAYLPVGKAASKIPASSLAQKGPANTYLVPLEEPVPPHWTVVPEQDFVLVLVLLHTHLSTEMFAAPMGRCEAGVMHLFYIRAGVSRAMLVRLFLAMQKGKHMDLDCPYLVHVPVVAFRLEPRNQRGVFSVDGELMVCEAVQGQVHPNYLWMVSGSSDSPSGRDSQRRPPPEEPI
Experimental: as §1, §2

| Structure (SMILES) | SphK inhibition (description) (SphK) | PDGF-BB-induced SMC proliferation (SMCs [1]) | PDGF-BB-induced S1P production (S1P production; 10 uM, S1P in media 12 hours after stimulating SMCs with PDGF-BB, FIG. 19C) | endogenous and PDGF-BB-induced S1P production (S1P production; concentration not given) | cell death (SMCs [2]) | SMC proliferation as indicated by differences in confluence (SMCs [3]) | cell morphology (SMCs [3]) | PDGF-BB-induced Sphk1 activity (Sphk1) |
| --- | --- | --- | --- | --- | --- | --- | --- | --- |
| CCCCCCCCc1ccc(C(=O)NC(C)C(N)=O)cc1 (stereo not drawn) [VPC94193] | inactive form | prevented PDGF-BB-induced SMC proliferation |  |  |  |  |  |  |
| CCCCCCCCc1ccc(C(=O)N[C@@H](C)C(=N)N)cc1 [VPC94075] | non-selective SphK inhibitor |  | blocks PDGF-BB-induced S1P production | suppresses both endogenous and PDGF-BB-induced S1P production | does not induce cell death | prevention of SMC proliferation | healthy cell morphology | prevents PDFD-BB-induced Sphk1 activity |
